Here are results for two compounds from patent publication EP0038572A1, “1-Nitro-9-hydroxyalkylaminoacridines or their salts” (priority 1980, dated 1981).

One series deals with Crocker sarcoma (Sa-180). The series is described as follows: Growth inhibition of Crocker sarcoma (Sa-180) in mice. In kind it is in vivo. As to conditions: intraperitoneally, tumor weight vs control. The procedure:
The growth inhibition of Crocker sarcoma (Sa-180) in mice.
For these experiments three-months old mice of about 25 g in weight were used. Each was inoculated with mouse sarcoma (Sa-180) and then they were divided into groups: a group of 10 control mice, and two to four test groups of 7 mice each.
The compounds to be investigated were administered intraperitoneally in appropriate doses after previous determination of maximum tolerance dose.
The percent difference between the mean weight of tumors isolated from control and test mice was accepted as a criterion for the evaluation of antineoplastic activity of the compounds, taking into account the toxic effects.
After doses of between 0.2-0.8 mg/kg the percent of inhibition was 44-86% respectively. Similarly, for the preparation allocated the code number C-934, i.e. 1-nitro-9-(hydroxybutylamino)acridine hydrochloride, after doses of between 0.2-0.4 mg/kg percent of inhibition was 45-60 % respectively.

Another series can be described thus: Acute toxicity in mice. In kind it is in vivo. As to conditions: intraperitoneally. The text has this: The acute, subacute, and long-term toxicity were studied in rats and rabbits (orally and intraperitoneally) and in mice (intraperitoneally).
The nature of another series: Acute toxicity in rats. The note with it: rat, in vivo, iv, intravenously.
The nature of series [1]: Acute toxicity in rabbits. The note with it: rabbit, in vivo, route not given. The procedure: (§1) Pharmacological examination of the compound C-857 was carried out in mice, rats and rabbits. The acute, subacute, and long-term toxicity were studied in rats and rabbits (orally and intraperitoneally) and in mice (intraperitoneally). […] In the subacute toxicity studies (3 weeks) 1/60 and 1/120 of LD50 were considered; in the long-term toxicity evaluations (3 months) - 1/200 and 1/400 of LD50.

Series [2] is described as follows: General pharmacological examination (circulatory, spasmolytic, central nervous system). The format is in vivo, mice, rats and rabbits. The procedure: as §1
(§2) In a dose corresponding to 1/2 of LD50 it inhibits the spontaneous mobility and shortens hexobarbital anaesthesia. […] Its immunosuppresive action measured in contact allergy tests, local transplant-host reaction tests and post adjuvant multiarticular inflammation is minimal and appears only after the total dose corresponding to 1/5 of LD50.

The nature of series [3]: Immunosuppressive action (contact allergy, local transplant-host reaction, post adjuvant multiarticular inflammation tests). The note with it: appears only after the total dose corresponding to 1/5 of LD50. In kind it is in vivo.
From the text: as §2

Series [4] is described as follows: Subacute toxicity studies (3 weeks). The format is in vivo, mice, rats and rabbits. The procedure:
as §1
About 15-40 % of total number of mice died after a dose of 1/120 of LD50. The increase in the number of leucocytes (particularly in rabbits) and decrease in relative number of lymphocytes were observed. However, no changes in the number of red cells were found. […] The preparation C-857 induced some drop of the urine level in rabbits.

A short description of series [5]: Long-term toxicity evaluations (3 months). The format is in vivo, mice, rats and rabbits. The procedure: as §1
The preparation C-857 was found not to change the spleen-liver index.
No changes of urea and creatinine content were found.

Series [6] relates to cells forming colonies in marrow. On the set-up: species or system mice. The note with it: mouse, in vivo. The source says:
The effect of action of compound C-857 is similar to that of Bleomicine which is non-toxic for marrow.

A short description of series [7]: Vomiting effect in pigeons. In kind it is in vivo.
Where [8] appears, read: dose corresponding to 1/2 of LD50.
Where [9] appears, read: intravenously, doses increasing to 20 mg/kg.

In the case of `Cl.O=[N+]([O-])c1cccc2nc3ccccc3c(NCCO)c12` [Example C-857, 1-nitro-9-(2-hydroxyethylamino)-acridine hydrochloride], the percent of inhibition in the series on Crocker sarcoma (Sa-180) (doses of between 0.2-0.8 mg/kg) is reported as 44-86%. In addition, the “maximal tolerated dose, LD10” value in “Acute toxicity in mice” was determined as 2.5 mg/kg. In the series “Acute toxicity in mice” (mouse, in vivo, ip), this compound registered an LD50 of 10.6 mg/kg. Also, the 50% lethal dose (LD50) in “Acute toxicity in rats” was found to be 9.2 mg/kg. In series [1], this compound showed a 50% lethal dose (LD50) of 11.4 mg/kg. In addition, in series [2] (setting [8]), the hexobarbital anaesthesia result is listed as “shortens” and the spontaneous mobility entry is on record as “inhibits”. For the same compound, in series [2] (in vivo), the “analgestic or anti-conclusive activity” value is “does not show any”; the “effect on central nervous system” value is “weak and irregular”. Further, in series [2] (setting [9]), the “effect on the circulatory system” value is listed as “did not exert any significant effect” and the spasmolytic action entry is recorded as “weak”. Moreover, in [3], the immunosuppresive action entry was “minimal”. In series [4] (3 weeks, 1/60 and 1/120 of LD50), the “effects observed in the subacute toxicity investigations” value is “moult, dyspndea, lack of thirst, diarrhoea, and loss of body weight”. Also, the “total number of mice died” value in [4] (mice, dose of 1/120 of LD50, subacute) is reported as 15-40%. In series [4] (rabbits, subacute), the urine level result was “some drop”. Also, in [4] (subacute), the “Liver and kidney function tests” value was “no pathological abnormalities”; the “histologic studies, findings” value was “nectrotic inflammation of the liver capsule and peritoneum of intestine wall”; the “histologic studies, interneal organs (liver, kidney, thymus gland)” value is listed as “No pathological abnormalities”; the “number of red cells” value is “no changes”. Also, in [4] (subacute), the “relative number of lymphocytes” value is on record as “decrease”. Also, the number of leucocytes result in series [4] (subacute, particularly in rabbits) is “increase”. The “general changes in long-term toxicity observation” value in [5] (3 months, 1/200 and 1/400 of LD50) is reported as “decrease in physical activity, lack of thirst or occasional diarrhoea”. Besides, in [5] (administrated intraperitoneally), the local action result was “locally irritating action”. For the same compound, in series [5] (in rabbits and rats), the “leucocytes (hematologic studies)” value is on record as “leucocytosis” and the “relative content of eosinophis” value is “decrease”. The value of hematocrit entry in series [5] (in rabbits, hematologic studies) was “decrease”. In series [5] (in vivo), the “activity of AspAT and ALAT enzymes” value was “no changes”; the “activity of alkaline phosphatase” value is given as “Slight changes”; the “urea and creatinine content” value is reported as “No changes”. Moreover, in series [5] (long-term), the “changes in liver and kidneys” value is given as “Insignificant changes”; the “changes in thymus gland and intestine” value is recorded as “no changes”; the spleen-liver index entry was “not to change”. Besides, in [6], the “myclo- toxic effect on cells forming colonies in marrow” value is recorded as “not to produce myclo- toxic effect”. In addition, the vomiting effect result in [7] was “did not exert vomiting effect”.
In the case of `Cl.O=[N+]([O-])c1cccc2nc3ccccc3c(NCCCCO)c12` [Example C-934, 1-nitro-9(4-hydroxybutylamino)acridine hydrochloride], in the series on Crocker sarcoma (Sa-180) (doses of between 0.2-0.4 mg/kg), the percent of inhibition was 45-60%.

One may read the LD50 as the dose at which mortality reaches 50%. A low value points to a more toxic substance.
